Experimental data as given in PubChem BioAssay AID2060621 (Molecular Pharmacology Branch, DTP, NCI, 2025).

Tested on: 324938-238-R-J1-PDC complex spheroids viability
Experiment: Anticancer human tumor 324938-238-R-J1-PDC patient-derived bladder carcinoma cell line growth inhibition [CLK]
Conditions: for IC50: curve of first compound; for viability, T/C: stronger effect = lower value
Source text: A high-throughput screen of multi-cell type tumor spheroids was designed to identify active combinations of […] and targeted small molecules. Complex spheroids include a stromal component modeled by human endothelial cells (HUVEC) and fibroblasts modeled by human mesenchymal stem cells (MSCs). The concentration ranges selected for each drug and investigational agent were based upon clinically achievable concentrations if the clinical Cmax of the agent was known.
Compounds. The drugs and investigational agents: cirtuvivint (SM08502; NSC835563), CC-671 (NSC850746), vemurafenib (NSC761431), tapotoclax (NSC804041), sotorasib (NSC818433), adagrasib (NSC831453), MRTX-1133 (NSC836407), BAY2416964 (NSC825713), copanlisib (NSC816437), inavolisib (NSC800729), abemaciclib (NSC768073), osimertinib (NSC779217), entinostat (NSC756642), eltanexor (KPT-8602, NSC794443), venetoclax (NSC766270), ceralasertib (NSC777638), bortezomib (NSC756655), olaparib (NSC753686), talazoparib (NSC767125), alisertib (NSC759677), peposertib (NSC802822), gemcitabine (NSC613327), 5-fluorouracil (NSC19893), SN-38 (NSC673596), oxaliplatin (NSC266046), paclitaxel (NSC125973), and doxorubicin (NSC123127), were obtained from the National Cancer Institute (NCI) Developmental Therapeutics Program Chemical Repository. The FDA-approved anticancer drug set is available from the Developmental Therapeutics Program at https://dtp.cancer.gov/organization/dscb/obtaining/available plates.htm. […] The stock solutions were prepared in dimethyl sulfoxide (DMSO, Sigma-Aldrich, St. Louis, MO, cat. D2650), except for the platinum complexes which were prepared in saline (Quality Biological, Gaithersburg, MD, cat. 114-055-101), at 800-fold the tested concentration and stored at -70 degrees C prior to their use. All drugs and investigational agents were tested over a range starting from a high concentration at or near the clinical Cmax and decreasing in half-log increments. If the clinical Cmax for an agent had not been determined, the highest concentration tested was 10 microM.
Cell Culture. All cells were maintained in an incubator at 37 degrees C and 5% CO2 with 95% humidity. The PDC lines were cultured according to standard operating procedures established by the NCI PDMR. Briefly, all PDCs were thawed and cultured in Matrigel-coated flasks prepared with a working solution of 1X Ham's F-12 nutrient mix, without supplementation (Invitrogen, Waltham, MA, cat. 11765054), 100 U/mL penicillin-streptomycin (Invitrogen, cat. 15140122), and 2.5% Matrigel (Corning Inc., Corning, NY, cat. 354248) for the first three passages. The 947758-054-R-J2-PDC line was cultured in 6B/Colon 1A media, which includes advanced DMEM/F-12 (Thermo Fisher Scientific, cat. 12634028), 10 mM HEPES (Thermo Fisher Scientific, cat. 15630080), 1X GlutaMAX supplement (Thermo Fisher Scientific, cat. 35050061), 0.1 mg/mL primocin (InvivoGen, cat. ant-pm-2), 10% defined fetal bovine serum, heat inactivated (HyClone Laboratories Inc., cat. SH30070.03HI), 1.25 mM N-Acetyl-L-cysteine (Sigma-Aldrich, cat. A9165), 10 mM nicotinamide (Sigma-Aldrich, cat. N0636), 1X B-27 supplement (Thermo Fisher Scientific, cat. 17504044), 1X N-2 supplement (Thermo Fisher Scientific, cat. 17502048), and 10 microM Y-27632 dihydrochloride (Tocris Bioscience, cat. 1254). The 876862-298-R-J1-PDC was cultured in 6E media, which includes all 6B/Colon 1A media components plus 50% L-WRN conditioned media (ATCC, cat. CRL-3276), 50 ng/mL recombinant human EGF recombinant protein (hEGF; Thermo Fisher Scientific, cat. PHG0311), 10 ng/mL recombinant human fibroblast growth factor 10 (hGFG-10; PeproTech, cat. 100-26), 1 ng/mL recombinant human fibroblast growth factor 2 (hFGF-2; PeproTech, cat. 100-18B), and 1 µM prostaglandin E2 (PGE2; Tocris, cat. 2296). The 227483-062-R1-J1-PDC line was cultured in Panc media, containing all 6E components except hFGF-2, with the addition of 500 nM SB-431542 (Selleckchem, cat. S1067) and 10 nM gastrin (Tocris, cat. 3006). […]
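Further: viability read after seven days of drug exposure.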
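Wherever viability, T/C is given: 100% = DMSO vehicle control wells.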

For `C=CC(=O)Nc1cc(Nc2nccc(-c3cn(C)c4ccccc34)n2)c(OC)cc1N(C)CCN(C)C` + CNC(=O)c1ccc(Nc2nc(OC3CCCC3)c3c(-c4ccc5nc(C)oc5c4)c[nH]c3n2)c(OC)c1, the IC50 (second compound 0.0316 µM) was 39.6 nM, the IC50 (second compound 0.1 µM) was < 0.949 nM and the IC50 (second compound 0.316 µM) was < 0.949 nM. For the same compound, the IC50 (second compound 1 µM) was < 0.949 nM, the IC50 (second compound 3.16 µM) was < 0.949 nM and the IC50 (second compound 10 µM) was < 0.949 nM. It also gave a viability, T/C (second compound 0.0316 µM, first compound 0.000949 µM) of 92.5%, a viability, T/C (second compound 0.0316 µM, first compound 0.003 µM) of 87.2% and a viability, T/C (second compound 0.0316 µM, first compound 0.00949 µM) of 74.5%. It also gave a viability, T/C (second compound 0.0316 µM, first compound 0.03 µM) of 52.8%, a viability, T/C (second compound 0.0316 µM, first compound 0.0949 µM) of 38.6% and a viability, T/C (second compound 0.0316 µM, first compound 0.3 µM) of 27.7%. The viability, T/C (second compound 0.1 µM, first compound 0.000949 µM) was 30.5%, the viability, T/C (second compound 0.1 µM, first compound 0.003 µM) was 24.8% and the viability, T/C (second compound 0.1 µM, first compound 0.00949 µM) was 21.4%. It also gave a viability, T/C (second compound 0.1 µM, first compound 0.03 µM) of 20.3%, a viability, T/C (second compound 0.1 µM, first compound 0.0949 µM) of 15.6% and a viability, T/C (second compound 0.1 µM, first compound 0.3 µM) of 14.1%. It also gave a viability, T/C (second compound 0.316 µM, first compound 0.000949 µM) of 19%, a viability, T/C (second compound 0.316 µM, first compound 0.003 µM) of 16.8% and a viability, T/C (second compound 0.316 µM, first compound 0.00949 µM) of 19.2%. It also gave a viability, T/C (second compound 0.316 µM, first compound 0.03 µM) of 16.2%, a viability, T/C (second compound 0.316 µM, first compound 0.0949 µM) of 13.4% and a viability, T/C (second compound 0.316 µM, first compound 0.3 µM) of 12.9%. For the same compound, the viability, T/C (second compound 1 µM, first compound 0.000949 µM) was 16.8%, the viability, T/C (second compound 1 µM, first compound 0.003 µM) was 15.5% and the viability, T/C (second compound 1 µM, first compound 0.00949 µM) was 16.8%. It also gave a viability, T/C (second compound 1 µM, first compound 0.03 µM) of 11.8%, a viability, T/C (second compound 1 µM, first compound 0.0949 µM) of 11.1% and a viability, T/C (second compound 1 µM, first compound 0.3 µM) of 11.5%. It also gave a viability, T/C (second compound 3.16 µM, first compound 0.000949 µM) of 16.8%, a viability, T/C (second compound 3.16 µM, first compound 0.003 µM) of 17.6% and a viability, T/C (second compound 3.16 µM, first compound 0.00949 µM) of 13.1%. The viability, T/C (second compound 3.16 µM, first compound 0.03 µM) was 14.3%, the viability, T/C (second compound 3.16 µM, first compound 0.0949 µM) was 11.9% and the viability, T/C (second compound 3.16 µM, first compound 0.3 µM) was 11.8%. For the same compound, the viability, T/C (second compound 10 µM, first compound 0.000949 µM) was 18.1%, the viability, T/C (second compound 10 µM, first compound 0.003 µM) was 17.9% and the viability, T/C (second compound 10 µM, first compound 0.00949 µM) was 14.8%. For the same compound, the viability, T/C (second compound 10 µM, first compound 0.03 µM) was 13.2%, the viability, T/C (second compound 10 µM, first compound 0.0949 µM) was 12.4% and the viability, T/C (second compound 10 µM, first compound 0.3 µM) was 11.5%.

With `O=c1[nH]cc(F)c(=O)[nH]1` + CN1CCN(c2cc(C(=O)Nc3cc4cc(-c5cnn(C)c5)ccc4cn3)ccn2)CC1 the IC50 (second compound 0.0316 µM) was 236 nM, the IC50 (second compound 0.1 µM) was 94.2 nM and the IC50 (second compound 0.316 µM) was < 31.6 nM. For the same compound, the IC50 (second compound 1 µM) was < 31.6 nM, the IC50 (second compound 3.16 µM) was < 31.6 nM and the IC50 (second compound 10 µM) was < 31.6 nM. The viability, T/C (second compound 0.0316 µM, first compound 0.0316 µM) was 74%, the viability, T/C (second compound 0.0316 µM, first compound 0.1 µM) was 72.8% and the viability, T/C (second compound 0.0316 µM, first compound 0.316 µM) was 42.1%. For the same compound, the viability, T/C (second compound 0.0316 µM, first compound 1 µM) was 20.4%, the viability, T/C (second compound 0.0316 µM, first compound 3.16 µM) was 23.9% and the viability, T/C (second compound 0.0316 µM, first compound 10 µM) was 19.1%. For the same compound, the viability, T/C (second compound 0.1 µM, first compound 0.0316 µM) was 61.5%, the viability, T/C (second compound 0.1 µM, first compound 0.1 µM) was 48.2% and the viability, T/C (second compound 0.1 µM, first compound 0.316 µM) was 36.4%. It also gave a viability, T/C (second compound 0.1 µM, first compound 1 µM) of 22.6%, a viability, T/C (second compound 0.1 µM, first compound 3.16 µM) of 18.2% and a viability, T/C (second compound 0.1 µM, first compound 10 µM) of 18.1%. For the same compound, the viability, T/C (second compound 0.316 µM, first compound 0.0316 µM) was 23.1%, the viability, T/C (second compound 0.316 µM, first compound 0.1 µM) was 23.9% and the viability, T/C (second compound 0.316 µM, first compound 0.316 µM) was 20.6%. It also gave a viability, T/C (second compound 0.316 µM, first compound 1 µM) of 18.9%, a viability, T/C (second compound 0.316 µM, first compound 3.16 µM) of 16.8% and a viability, T/C (second compound 0.316 µM, first compound 10 µM) of 17%. For the same compound, the viability, T/C (second compound 1 µM, first compound 0.0316 µM) was 0.71%, the viability, T/C (second compound 1 µM, first compound 0.1 µM) was 1.08% and the viability, T/C (second compound 1 µM, first compound 0.316 µM) was 0.67%. For the same compound, the viability, T/C (second compound 1 µM, first compound 1 µM) was 0.81%, the viability, T/C (second compound 1 µM, first compound 3.16 µM) was 0.77% and the viability, T/C (second compound 1 µM, first compound 10 µM) was 1.58%. The viability, T/C (second compound 3.16 µM, first compound 0.0316 µM) was 0.09%, the viability, T/C (second compound 3.16 µM, first compound 0.1 µM) was 0.15% and the viability, T/C (second compound 3.16 µM, first compound 0.316 µM) was 0.1%. The viability, T/C (second compound 3.16 µM, first compound 1 µM) was 0.11%, the viability, T/C (second compound 3.16 µM, first compound 3.16 µM) was 0.08% and the viability, T/C (second compound 3.16 µM, first compound 10 µM) was 0.19%. The viability, T/C (second compound 10 µM, first compound 0.0316 µM) was 0.07%, the viability, T/C (second compound 10 µM, first compound 0.1 µM) was 0.12% and the viability, T/C (second compound 10 µM, first compound 0.316 µM) was 0.13%. For the same compound, the viability, T/C (second compound 10 µM, first compound 1 µM) was 0.09%, the viability, T/C (second compound 10 µM, first compound 3.16 µM) was 0.1% and the viability, T/C (second compound 10 µM, first compound 10 µM) was 0.19%.
